US7803930B2, “Antisense modulation of apolipoprotein B-expression” (Isis Pharmaceuticals, Inc., priority 2002, dated 2010)
In the oligonucleotide strings, read from the 5' end, every base follows the letter of its sugar. An asterisk marks phosphorothioate; unmarked linkages are phosphodiester. Other units and linkages are bracketed, terminal groups are in braces. A string of capitals states the bases alone. e = 2'-O-(2-methoxyethyl) (MOE); [5mC] = 5-methylcytosine; d = 2'-deoxy (DNA)

How the values were obtained:
PTEN = assay: ob/ob mice (Example 50): PTEN levels; assay type: in vivo, mouse; settings: high fat high cholesterol diet, 50 mg/kg i.p. twice a week, six weeks
Procedure: Ob/ob mice receiving a high fat, high cholesterol diet (60% kcal fat supplemented with 0.15% cholesterol) were treated with one of several oligonucleotides to evaluate their effect on apolipoprotein B-related phenotypic endpoints in ob/ob mice. After overnight fasting, mice from each group were dosed intraperitoneally twice a week with 50 mg/kg of ISIS 147483 (SEQ ID NO: 79), or 147764 (SEQ ID NO: 109), or the controls ISIS 116847 (SEQ ID NO: 857), or 141923 (SEQ ID NO: 858), or saline for six weeks. At study termination and forty eight hours after the final injections, animals were sacrificed and evaluated for target mRNA levels in liver, cholesterol and triglyceride levels, liver enzyme levels, serum glucose levels, and PTEN levels.

[1] = High fat fed mice (Example 51): intact oligonucleotide in liver tissue by capillary gel electrophoresis; assay type: in vivo, mouse; settings: 50 mg/kg i.p. twice weekly
Procedure: In a further embodiment of the invention, the inhibition of apolipoprotein B mRNA in mice was compared to liver oligonucleotide concentration, total cholesterol, LDL-cholesterol and HDL-cholesterol. Male C57Bl/6 mice receiving a high fat diet (60% fat) were evaluated over the course of 6 weeks for the effects of treatment with twice weekly intraperitoneal injections of 50 mg/kg ISIS 147764 (SEQ ID NO: 109) or 50 mg/kg of the control oligonucleotide ISIS 141923 (SEQ ID NO: 858). Control animals received saline treatment. Animals were sacrificed after 2 days, 1, 2, 4 and 6 weeks of treatment. Each treatment group at each time point consisted of 8 mice.
Target expression in liver was measured by real-time PCR as described by other examples herein and is expressed as percent inhibition relative to saline treated mice. Total, LDL- and HDL-cholesterol levels were measured by routine clinical analysis using an Olympus Clinical Analyzer (Olympus America Inc., Melville, N.Y.) and are presented in mg/dL. Results from saline-treated animals are shown for comparison. Intact oligonucleotide in liver tissue was measured by capillary gel electrophoresis and is presented as micrograms of oligonucleotide per gram of tissue.
The oligonucleotide treatments described in this example were duplicated to investigate the extent to which effects of ISIS 147764 persist following cessation of treatment. Mice were treated as described, and sacrificed 1, 2, 4, 6 and 8 weeks following the cessation of oligonucleotide treatment.

[2] = Transgenic mice dosing study (Example 52): serum total, LDL- and HDL-cholesterol; assay type: in vivo, mouse
Procedure: A long-term study of inhibition of human apolipoprotein B by ISIS 301012 in C57BL/6NTac-TgN(APOB100) mice (Taconic, Germantown, N.Y.) was conducted for a 3 month period. Mice were dosed intraperitoneally twice a week with 10 or 25 mg/kg ISIS 301012 (SEQ ID No: 247) for 12 weeks. Saline-injected animals served as controls. Each treatment group comprised 4 animals.
Results are presented as mg/dL in serum and represent the average of 4 animals. Results from the saline control animals are also shown.

[3] = system: liver gene expression profile; lipid metabolism genes; assay: Microarray and real-time PCR analysis of liver gene expression in lean versus high-fat fed mice (Example 65); assay type: in vivo, mouse; settings: high fat fed C57Bl/6 mice
Procedure: (§1) Male C57Bl/6 mice were divided into the following groups, consisting of 5 animals each: (1) mice on a lean diet, injected with saline (lean control); (2) mice on a high fat diet; (3) mice on a high fat diet injected with 50 mg/kg of the control oligonucleotide 141923 (SEQ ID NO: 858); (4) mice on a high fat diet given 20 mg/kg atorvastatin calcium (Lipitor®, Pfizer Inc.); (5) mice on a high fat diet injected with 10, 25 or 50 mg/kg ISIS 147764 (SEQ ID NO: 109). Saline and oligonucleotide treatments were administered intraperitoneally twice weekly for 6 weeks. Atorvastatin was administered daily for 6 weeks. At study termination, liver samples were isolated from each animal and RNA was isolated for Northern blot qualitative assessment, DNA microarray and quantitative real-time PCR. Northern blot assessment and quantitative real-time PCR were performed as described by other examples herein.
For DNA microarray analysis, hybridization samples were prepared from 10 μg of total RNA isolated from each mouse liver according to the Affymetrix Expression Analysis Technical Manual (Affymetrix, Inc., Santa Clara, Calif.). […] Signal values for each probe set were calculated using the Affymetrix Microarray Suite v5.0 software (Affymetrix, Inc., Santa Clara, Calif.). […]

[4] = High fat fed mice (Example 65): ALT and AST levels; assay type: in vivo, mouse; settings: 10, 25 and 50 mg/kg
Procedure: as §1
Mouse apolipoprotein B mRNA and serum cholesterol levels, measured as described herein, were evaluated to confirm antisense inhibition by ISIS 147764 and ISIS 147483. […] The 50 mg/kg dose of ISIS 147483 increased ALT and AST levels.

[5] = system: mouse apolipoprotein B protein; assay: Transgenic mice dosing study (Example 52): immunoblot of mouse apolipoprotein B protein in serum and liver; assay type: in vivo
[6] = serum, 10 mg/kg i.p. twice a week, 2 weeks
[7] = serum, 10 mg/kg i.p. twice a week, 4 weeks
[8] = serum, 10 mg/kg i.p. twice a week, 6 weeks
[9] = serum, 10 mg/kg i.p. twice a week, 8 weeks
[10] = serum, 10 mg/kg i.p. twice a week, Start
[11] = serum, 25 mg/kg i.p. twice a week, 2 weeks
[12] = serum, 25 mg/kg i.p. twice a week, 4 weeks
[13] = serum, 25 mg/kg i.p. twice a week, 6 weeks
[14] = serum, 25 mg/kg i.p. twice a week, 8 weeks
[15] = serum, 25 mg/kg i.p. twice a week, Start

Substance: 147764 (eG*eT*e[5mC]*e[5mC]*e[5mC]*dT*dG*dA*dA*dG*dA*dT*dG*dT*d[5mC]*eA*eA*eT*eG*e[5mC]) [compound 147764]
- mRNA % control PTEN (PTEN): 115.3 % control
- Intact oligonucleotide ([1]; high fat fed male C57Bl/6 mice, treatment period 1 week): 121 µg/g
- Intact oligonucleotide ([1]; high fat fed male C57Bl/6 mice, treatment period 2 weeks): 194 µg/g
- Intact oligonucleotide ([1]; high fat fed male C57Bl/6 mice, treatment period 4 weeks): 340 µg/g
- Intact oligonucleotide ([1]; high fat fed male C57Bl/6 mice, treatment period 6 weeks): 586 µg/g
- Intact oligonucleotide ([1]; high fat fed male C57Bl/6 mice, treatment period 2 days): 85 µg/g
- Intact oligonucleotide ([1]; high fat fed mice, 1 week after cessation of dosing): 215 µg/g
- Intact oligonucleotide ([1]; high fat fed mice, 2 weeks after cessation of dosing): 168 µg/g
- Intact oligonucleotide ([1]; high fat fed mice, 4 weeks after cessation of dosing): 124 µg/g
- Intact oligonucleotide ([1]; high fat fed mice, 6 weeks after cessation of dosing): 70 µg/g
- Intact oligonucleotide ([1]; high fat fed mice, 8 weeks after cessation of dosing): 43 µg/g

Substance: GTCCCTGAAGATGTCAATGC (2'-MOE gapmer, further chemistry not given here) [ISIS 147764]
- LDL-cholesterol ([2]; 10 or 25 mg/kg, first 4 weeks of treatment): lowered
- mRNA expression of lipid metabolism genes (hepatic lipase, fatty acid synthase, ABCD2, FABP2, stearol CoA desaturase-1, HMG CoA reductase), real-time PCR [3]: reduction in mRNA expression
- liver gene expression profile (microarray) ([3]; 10, 25 or 50 mg/kg i.p. twice weekly, 6 weeks): drives the gene expression profile in high fat fed mice to the profile observed in lean mice
- ALT or AST levels [4]: did not significantly elevate

Substance: ISIS 301012: SEQ ID NO: 247, antisense oligonucleotide targeted to human apolipoprotein B (antisense GCCTCAGTCTGCTTCGCACC; chemistry not given here)
- HDL-cholesterol [2, 6]: 69 mg/dL
- LDL-cholesterol [2, 6]: 20 mg/dL
- Total cholesterol [2, 6]: 97 mg/dL
- HDL-cholesterol [2, 7]: 78 mg/dL
- LDL-cholesterol [2, 7]: 23 mg/dL
- Total cholesterol [2, 7]: 111 mg/dL
- HDL-cholesterol [2, 8]: 72 mg/dL
- LDL-cholesterol [2, 8]: 37 mg/dL
- Total cholesterol [2, 8]: 120 mg/dL
- HDL-cholesterol [2, 9]: 79 mg/dL
- LDL-cholesterol [2, 9]: 33 mg/dL
- Total cholesterol [2, 9]: 122 mg/dL
- HDL-cholesterol [2, 10]: 70 mg/dL
- LDL-cholesterol [2, 10]: 35 mg/dL
- Total cholesterol [2, 10]: 115 mg/dL
- HDL-cholesterol [2, 11]: 73 mg/dL
- LDL-cholesterol [2, 11]: 19 mg/dL
- Total cholesterol [2, 11]: 101 mg/dL
- HDL-cholesterol [2, 12]: 76 mg/dL
- LDL-cholesterol [2, 12]: 19 mg/dL
- Total cholesterol [2, 12]: 107 mg/dL
- HDL-cholesterol [2, 13]: 80 mg/dL
- LDL-cholesterol [2, 13]: 37 mg/dL
- Total cholesterol [2, 13]: 124 mg/dL
- HDL-cholesterol [2, 14]: 91 mg/dL
- LDL-cholesterol [2, 14]: 44 mg/dL
- Total cholesterol [2, 14]: 147 mg/dL
- HDL-cholesterol [2, 15]: 64 mg/dL
- LDL-cholesterol [2, 15]: 33 mg/dL
- Total cholesterol [2, 15]: 107 mg/dL
- expression of the mouse apolipoprotein B protein in liver (immunoblot) [5]: does not change significantly
- expression of the mouse apolipoprotein B protein in serum (immunoblot) [5]: no significant change
